Measured values from the supplement of paper PMC10307832.

Assays:
Experiment in all cases: relative viability (nuclei count vs DMSO), 5 days (fraction); higher = more cells survive
Zosuquidar + Pemetrexed = compound: O[C@@H](COc1cccc2ncccc12)CN1CCN([C@@H]2c3ccccc3[C@@H]3[C@H](c4ccccc42)C3(F)F)CC1 [Zosuquidar] + Nc1nc2[nH]cc(CCc3ccc(C(=O)N[C@@H](CCC(=O)O)C(=O)O)cc3)c2c(=O)[nH]1 [Pemetrexed] (partner 0.2 µM)
How it was run: (§1)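 After 5 days of treatment, lung cancer cells in 1536-well plates were fixed and stained in a single step (final 0.05% Triton X-100, 1% formaldehyde, 1 ug/ml Hoechst) and their nuclei counted on 4× images. Treatment had been applied by pin tool the day after seeding as one drug alone or as a fixed anchor-drug dose with five library-drug doses (not always all listed) in √10 steps. Relative viability is the nuclei count of treated wells divided by that of vehicle wells, and values are medians of duplicate plates.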

Zosuquidar + Navitoclax = compound: O[C@@H](COc1cccc2ncccc12)CN1CCN([C@@H]2c3ccccc3[C@@H]3[C@H](c4ccccc42)C3(F)F)CC1 [Zosuquidar] + CC1(C)CCC(c2ccc(Cl)cc2)=C(CN2CCN(c3ccc(C(=O)NS(=O)(=O)c4ccc(N[C@H](CCN5CCOCC5)CSc5ccccc5)c(S(=O)(=O)C(F)(F)F)c4)cc3)CC2)C1 [Navitoclax] (partner 0.5 µM)
How it was run: as §1

Zosuquidar + Dasatinib = compound: O[C@@H](COc1cccc2ncccc12)CN1CCN([C@@H]2c3ccccc3[C@@H]3[C@H](c4ccccc42)C3(F)F)CC1 [Zosuquidar] + Cc1nc(Nc2ncc(C(=O)Nc3c(C)cccc3Cl)s2)cc(N2CCN(CCO)CC2)n1 [Dasatinib] (partner 0.075 µM)
How it was run: as §1

Zosuquidar + Foretinib = compound: O[C@@H](COc1cccc2ncccc12)CN1CCN([C@@H]2c3ccccc3[C@@H]3[C@H](c4ccccc42)C3(F)F)CC1 [Zosuquidar] + COc1cc2c(Oc3ccc(NC(=O)C4(C(=O)Nc5ccc(F)cc5)CC4)cc3F)ccnc2cc1OCCCN1CCOCC1 [Foretinib] (partner 0.25 µM)
How it was run: as §1

Cell Line	relative viability (Zosuquidar + Pemetrexed; first compound 0.01 µM)	relative viability (Zosuquidar + Pemetrexed; first compound 0.03162 µM)	relative viability (Zosuquidar + Pemetrexed; first compound 0.1 µM)	relative viability (Zosuquidar + Pemetrexed; first compound 0.3162 µM)	relative viability (Zosuquidar + Pemetrexed; first compound 1 µM)	relative viability (Zosuquidar + Navitoclax; first compound 0.01 µM)	relative viability (Zosuquidar + Navitoclax; first compound 0.03162 µM)	relative viability (Zosuquidar + Navitoclax; first compound 0.1 µM)	relative viability (Zosuquidar + Navitoclax; first compound 0.3162 µM)	relative viability (Zosuquidar + Navitoclax; first compound 1 µM)	relative viability (Zosuquidar + Dasatinib; first compound 0.01 µM)	relative viability (Zosuquidar + Dasatinib; first compound 0.03162 µM)	relative viability (Zosuquidar + Dasatinib; first compound 0.1 µM)	relative viability (Zosuquidar + Dasatinib; first compound 0.3162 µM)	relative viability (Zosuquidar + Dasatinib; first compound 1 µM)	relative viability (Zosuquidar + Foretinib; first compound 0.01 µM)	relative viability (Zosuquidar + Foretinib; first compound 0.03162 µM)	relative viability (Zosuquidar + Foretinib; first compound 0.1 µM)	relative viability (Zosuquidar + Foretinib; first compound 0.3162 µM)	relative viability (Zosuquidar + Foretinib; first compound 1 µM)
HCC-827	0.237	0.272	0.255	0.263	0.279	1.04	0.991	0.991	1.02	1.03	0.293	0.348	0.237	0.272	0.351	1.05	1.03	0.9	1.01	1.02
HOP-62	0.256	0.38	0.341	0.308	0.295	0.825	1.13	0.939	0.924	0.975	0.702	0.528	0.594	0.679	0.633	1.09	1.25	1.01	1.1	1.08
LC-2-ad	0.255	0.276	0.296	0.31	0.282	0.452	0.607	0.407	0.534	0.406	0.509	0.74	0.531	0.589	0.613	0.975	0.933	0.862	1.03	0.931
LCLC-97TM1	0.192	0.191		0.158	0.183	0.448	0.396		0.496	0.412	0.776	0.756	0.73	0.761	0.898	0.922	0.929	0.9	1.01	0.974
LK-2	0.281	0.306	0.205	0.26	0.271	0.989	0.931	0.875	0.954	0.847	0.31	0.41	0.291	0.297	0.314	1.32	1.03	1.3	1.05	1.23
LOU-NH91	0.409	0.411	0.448	0.423	0.396	0.624	0.695	0.571	0.739	0.68	0.515	0.377		0.601	0.552	0.882	0.857		0.936	0.91
LU99A	0.168	0.175	0.155	0.165	0.171	0.783	0.819	0.79	0.91	0.73	0.458	0.577	0.505	0.552	0.569	0.784	0.931	0.813	0.855	0.814
LXF-289	0.892	0.905	0.908	0.895	0.908	0.934	0.957	0.911	0.952	1.02	0.217	0.125	0.237	0.301	0.182	0.956	1.02	0.94	1.02	0.968
NCI-H23	0.601		0.612	0.843	0.657	0.765	0.96	0.746	0.79	0.862	0.713	0.811	0.739	0.983	0.806	0.979	0.875	1.02	1.04	1.09
NCI-H322M	0.623	0.537	0.548	0.582	0.575	1.26	1.16	1.08	1.29	1.14	0.242	0.229	0.242	0.269	0.227	0.961	1.19	0.723	0.983	0.972
NCI-H441	0.29	0.286	0.249	0.23	0.268	0.748	0.496	0.615		0.59	0.521	0.606	0.574	0.683	0.718	1.06	1.01	0.866	1.03	1.2
NCI-H460	0.0576	0.0545	0.0685	0.0617	0.0615	1.07	1.3	1.24	1.14	1.23	0.428	0.364	0.453	0.855	0.485	0.922	0.987	0.987	0.969	0.952
NCI-H520	0.742	0.723	0.788	0.85	0.899	1.16	1.15	0.986	1.03	1.02	0.224	0.156		0.254	0.189	0.882	0.849		0.619	0.685
NCI-H596	0.456	0.482	0.51	0.507	0.544	1.04	1.05	0.861	0.982	0.972	0.584		0.715	0.623	0.618	0.805		0.788	0.939	0.868
NCI-H647	0.188	0.177	0.178	0.168	0.139	1.02	1.1	0.986	1.14	1.06	0.168	0.121	0.137	0.229	0.163	1.21	1.13	1.32	1.27	1.02
NCI-H838	0.239	0.236	0.254	0.251	0.268	1.25	1.22	1.16	1.26	1.17	0.321	0.26		0.336	0.35	1.07	1	0.995	1.11	1.07

Cell Line	relative viability (Zosuquidar + Pemetrexed; first compound 0.01 µM)	relative viability (Zosuquidar + Pemetrexed; first compound 0.03162 µM)	relative viability (Zosuquidar + Pemetrexed; first compound 0.1 µM)	relative viability (Zosuquidar + Pemetrexed; first compound 0.3162 µM)	relative viability (Zosuquidar + Pemetrexed; first compound 1 µM)	relative viability (Zosuquidar + Navitoclax; first compound 0.01 µM)	relative viability (Zosuquidar + Navitoclax; first compound 0.03162 µM)	relative viability (Zosuquidar + Navitoclax; first compound 0.1 µM)	relative viability (Zosuquidar + Navitoclax; first compound 0.3162 µM)	relative viability (Zosuquidar + Navitoclax; first compound 1 µM)	relative viability (Zosuquidar + Dasatinib; first compound 0.01 µM)	relative viability (Zosuquidar + Dasatinib; first compound 0.03162 µM)	relative viability (Zosuquidar + Dasatinib; first compound 0.1 µM)	relative viability (Zosuquidar + Dasatinib; first compound 0.3162 µM)	relative viability (Zosuquidar + Dasatinib; first compound 1 µM)	relative viability (Zosuquidar + Foretinib; first compound 0.01 µM)	relative viability (Zosuquidar + Foretinib; first compound 0.03162 µM)	relative viability (Zosuquidar + Foretinib; first compound 0.1 µM)	relative viability (Zosuquidar + Foretinib; first compound 0.3162 µM)	relative viability (Zosuquidar + Foretinib; first compound 1 µM)
NCI-H1355	1.01	1	0.916	1.11	1.03	1.06	0.951	0.797	0.954	1	0.681	0.726	0.623	0.85	0.711	0.951	0.989	0.9	1.02	0.923
NCI-H1395	0.718	0.983		1	0.811	1.11	1.08	1.12	1.28	1.15	0.404	0.378	0.307	0.406	0.431	0.98	0.957	0.824	1.06	1
NCI-H1437	0.331	0.311	0.303	0.296	0.337	1.08	1.1	1.06	1.15	1.15	0.404	0.398	0.457	0.715	0.346	1.28	1.24	1.16	1.3	1.31
NCI-H1650	0.378	0.373	0.327	0.479	0.401	1.12	1.11	1.05	1.23	1.21	0.298	0.29	0.284	0.338	0.314	1.12	1.04	1.21	1.15	1.49
NCI-H1651	0.55	0.653	0.425	0.533	0.644	0.949	0.987	1.05	0.977	1.01	0.357	0.324	0.463	0.356	0.381	0.763	0.845	0.703	0.863	0.778
NCI-H1666	0.807	0.855	0.741	0.92	0.909	0.906	1	1.03	1.02	0.818	0.785	0.818	0.869	0.9	0.761	0.946	1.01	0.976	1.02	0.942
NCI-H1734	0.366	0.382	0.395	0.422	0.447	0.922	0.925	0.754	0.862	0.787	0.41	0.408	0.455	0.571	0.531	0.816	0.868	0.775	0.938	0.817
NCI-H1755	0.448	0.428	0.426	0.426	0.452	0.988	1.01	0.954	1.07	0.949	0.401	0.383	0.375	0.451	0.415	0.908	0.894	0.841	0.959	0.932
NCI-H1793	0.898			1.01	0.832	0.407	0.444		0.499	0.396	0.375	0.3		0.489	0.488	0.747	0.914		0.896	0.641
NCI-H1915	0.518	0.527	0.413	0.489	0.474	0.756	0.79	0.796	0.802	0.743	0.311	0.305	0.308	0.337	0.283	0.951	1.11	1.07	1.12	1.13
NCI-H1944	0.583	0.585	0.604	0.678	0.665	1.06	1.02	1	1.18	0.945	0.206	0.159	0.187	0.244	0.229	0.774	0.862	0.898	0.883	0.824
NCI-H1975	0.279	0.299	0.293	0.272	0.29	1.13	1.14	1.17	1.14	0.993	0.335	0.313	0.433	0.374	0.352	0.959	0.832	1.02	0.952	1.02
NCI-H1993	0.578	0.624		0.642	0.636	0.966	0.978	0.896	1.1	0.802	0.66	0.507	0.501	0.564	0.654	0.758	0.724	0.701	0.81	0.673
NCI-H2009	1.04	1.04	1.01	0.902	1.06	1.19	1.12	1.13	1.1	1.14	0.281	0.174	0.244	0.331	0.284	1.24	1.2	1.24	1.2	1.23
NCI-H2023	0.224	0.233	0.212	0.302	0.297	0.958	1	0.916	1.05	0.92	0.46	0.436	0.557	0.532	0.674	0.936	0.759	0.689	0.998	0.99
NCI-H2085	0.953	0.697		0.956	0.904	1.13	1.06	1.06	1.2	1.14	0.247	0.234	0.19	0.243	0.228	0.855	1.02	0.837	1.01	0.981
